Source: PMC5325082 (Molecular Pharmacology, 2017)

How the values were obtained:
[1] = target: chicken α9α10 nAChR (wild type) (Gallus gallus, UniProt Q9I8C7+Q9PTS8); test: ACh-evoked currents, two-electrode voltage clamp in Xenopus laevis oocytes, wild-type receptor; format: cell-based
From the text: (§1) cDNAs encoding Gallus gallus (chick) or Rattus norvegicus (rat) α9 and α10 nAChR subunits were subcloned into a modified pGEMHE vector for expression studies in Xenopus laevis oocytes. Capped cRNAs were in vitro transcribed from linearized plasmid DNA templates using RiboMAX Large Scale RNA Production System (Promega, Madison, WI). Mutant subunits were produced using Quick Change XL II kit (Stratagene, La Jolla, CA). Amino acid sequences of rat and chicken α9, α10, and Torpedo α1 subunits were aligned using ClustalW (EMBL-EBI, Wellcome Genome Campus, Hinxton, Cambridgeshire). Residues were numbered according to the corresponding Torpedo α1 subunit mature protein ([Karlin, 2002]).
The maintenance of Xenopus laevis and the preparation and cRNA injection of stage V and VI oocytes have been described in detail elsewhere ([Verbitsky et al., 2000]). Typically, oocytes were injected with 50 nl of RNase-free water containing 0.01–1.0 ng of cRNA (at a 1:1 molar ratio when pairwise combined) and maintained in Barth’s solution at 18°C. […] Data were analyzed using Clampfit from the pClamp 6.1 software (Molecular Devices, Sunnyvale, CA). […]
Concentration-response curves were normalized to the maximal agonist response in each oocyte. […] Data were analyzed using Clampfit from the pClamp 6.1 software.

rat α9α10CC/SS receptor = rat α9α10CC/SS receptor (Rattus norvegicus, UniProt P43144+Q9JLB5, C218S/C219S); test: ACh-evoked currents, two-electrode voltage clamp in Xenopus laevis oocytes; format: cell-based
Chain of rat α9α10CC/SS receptor (P43144 26-479, stated change not applied): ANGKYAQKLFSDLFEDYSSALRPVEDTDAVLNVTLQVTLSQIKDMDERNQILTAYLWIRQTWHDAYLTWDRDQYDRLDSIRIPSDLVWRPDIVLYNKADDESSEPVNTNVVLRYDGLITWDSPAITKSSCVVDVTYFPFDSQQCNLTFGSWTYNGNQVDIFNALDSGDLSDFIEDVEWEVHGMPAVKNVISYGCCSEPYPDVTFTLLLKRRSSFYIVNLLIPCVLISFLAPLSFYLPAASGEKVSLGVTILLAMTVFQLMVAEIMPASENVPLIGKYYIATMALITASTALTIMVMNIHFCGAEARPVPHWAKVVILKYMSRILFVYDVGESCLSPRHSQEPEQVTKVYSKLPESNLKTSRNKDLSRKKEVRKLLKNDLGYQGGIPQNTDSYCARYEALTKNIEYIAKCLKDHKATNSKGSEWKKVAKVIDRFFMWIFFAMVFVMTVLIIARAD
Chain of rat α9α10CC/SS receptor (Q9JLB5 25-447 C218S/C219S): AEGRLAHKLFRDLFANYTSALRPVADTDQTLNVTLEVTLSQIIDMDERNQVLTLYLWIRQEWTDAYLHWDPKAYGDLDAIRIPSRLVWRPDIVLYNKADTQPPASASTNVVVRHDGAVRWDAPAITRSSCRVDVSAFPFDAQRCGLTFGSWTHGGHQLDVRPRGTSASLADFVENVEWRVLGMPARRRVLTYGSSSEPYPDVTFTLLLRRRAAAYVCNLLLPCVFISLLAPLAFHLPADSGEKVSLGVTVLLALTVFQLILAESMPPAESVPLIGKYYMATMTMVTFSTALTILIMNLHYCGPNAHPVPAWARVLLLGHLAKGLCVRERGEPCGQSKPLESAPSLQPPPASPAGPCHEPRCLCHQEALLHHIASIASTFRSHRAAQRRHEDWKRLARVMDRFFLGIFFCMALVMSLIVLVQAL
From the text: as §1
(§2) The maintenance of Xenopus laevis and the preparation and cRNA injection of stage V and VI oocytes have been described in detail elsewhere ([Verbitsky et al., 2000]). Typically, oocytes were injected with 50 nl of RNase-free water containing 0.01–1.0 ng of cRNA (at a 1:1 molar ratio when pairwise combined) and maintained in Barth’s solution at 18°C. Electrophysiological recordings were performed 2–6 days after cRNA injection under two-electrode voltage clamp with an Oocyte Clamp OC-725B or C amplifier (Warner Instruments Corp., Hamden, CT). Recordings were filtered at a corner frequency of 10 Hz using a 900BT Tunable Active Filter (Frequency Devices Inc., Ottawa, IL). Data acquisition was performed using a Patch Panel PP-50 LAB/1 interface (Warner Instruments Corp.) at a rate of 10 points per second. Both voltage and current electrodes were filled with 3 M KCl and had resistances of ∼1 MΩ. Data were analyzed using Clampfit from the pClamp 6.1 software (Molecular Devices, Sunnyvale, CA). During electrophysiological recordings, oocytes were continuously superfused (∼15 ml/min) with normal frog saline composed of: 115 mM NaCl, 2.5 mM KCl, 1.8 mM CaCl2, and 10 mM HEPES buffer, pH 7.2. […] Unless otherwise indicated, the membrane potential was clamped to −70 mV. To minimize activation of the endogenous Ca^2+ sensitive chloride current ([Elgoyhen et al., 2001]), all experiments were performed in oocytes incubated with the Ca^2+ chelator 1,2-bis(2-aminophenoxy)ethane-N,N,N′,N′-tetraacetic acid (acetoxymethyl ester) (100 µM) for 3 hours before electrophysiological recordings.
Concentration-response curves were normalized to the maximal agonist response in each oocyte. The mean and S.E.M. values of the responses are represented. Agonist concentration-response curves were iteratively fitted, using Prism 5 software (GraphPad Software Inc., La Jolla, CA), with the equation: I/Imax = A^nH/(A^nH + EC50^nH), where I is the peak inward current evoked by the agonist at concentration A; Imax is the current evoked by the concentration of the agonist eliciting a maximal response; EC50 is the concentration of the agonist inducing a half-maximal current response; and nH is the Hill coefficient. Data were analyzed using Clampfit from the pClamp 6.1 software.

rat α9α10R117M receptor = rat α9α10R117M receptor (Rattus norvegicus, UniProt P43144+Q9JLB5, R143M); test: as above; format: cell-based
Chain of rat α9α10R117M receptor (P43144 26-479): as the sequence (P43144 26-479, stated change not applied) above
Chain of rat α9α10R117M receptor (Q9JLB5 25-447 R143M): as the sequence (Q9JLB5 25-447 C218S/C219S) above, with R119M, S194C, S195C counted along it
From the text: as §1, §2
(§3) Concentration-response curves were normalized to the maximal agonist response in each oocyte. The mean and S.E.M. values of the responses are represented. […] Data were analyzed using Clampfit from the pClamp 6.1 software. […]

[2] = target: rat α9α10 W55T/R117M receptor (Rattus norvegicus, UniProt P43144+Q9JLB5, R143M/W81T); test: as above; format: cell-based
Chain of rat α9α10 W55T/R117M receptor (P43144 26-479): as the sequence (P43144 26-479, stated change not applied) above
Chain of rat α9α10 W55T/R117M receptor (Q9JLB5 25-447 W81T/R143M): as the sequence (Q9JLB5 25-447 C218S/C219S) above, with W57T, R119M, S194C, S195C counted along it
From the text: as §1, §2, §3

rat α9α10W55T receptor = target: T1, rat α9α10W55T receptor (Rattus norvegicus, UniProt P43144+Q9JLB5, W81T); test: as above; format: cell-based
T1 construct: expressed in transfected cells; host or cells: Xenopus laevis oocytes (cRNA injection)
T1 sequence (P43144 26-479): as the sequence (P43144 26-479, stated change not applied) above
T1 sequence (Q9JLB5 25-447 W81T): as the sequence (Q9JLB5 25-447 C218S/C219S) above, with W57T, S194C, S195C counted along it
From the text: as §1, §2, §3

[3] = system: Aplysia californica AChBP, CC mutant; details: does not abolish ACh binding; ref Hansen and Taylor, 2007; cited from earlier work

Chain of chicken α9α10 nAChR (wild type) (Q9I8C7 27-452): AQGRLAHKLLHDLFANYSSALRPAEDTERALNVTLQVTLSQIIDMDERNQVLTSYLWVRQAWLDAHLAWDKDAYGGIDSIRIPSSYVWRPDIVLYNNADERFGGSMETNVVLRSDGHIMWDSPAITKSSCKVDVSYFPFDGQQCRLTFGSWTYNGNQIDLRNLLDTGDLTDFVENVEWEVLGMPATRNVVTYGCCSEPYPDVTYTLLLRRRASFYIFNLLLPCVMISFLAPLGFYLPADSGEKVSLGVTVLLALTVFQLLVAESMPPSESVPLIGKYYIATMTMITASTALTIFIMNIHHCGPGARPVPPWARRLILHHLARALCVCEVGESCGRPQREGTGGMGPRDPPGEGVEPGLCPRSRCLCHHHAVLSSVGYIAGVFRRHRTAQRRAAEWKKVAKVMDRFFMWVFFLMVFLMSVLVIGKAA
Chain of chicken α9α10 nAChR (wild type) (Q9PTS8 28-484): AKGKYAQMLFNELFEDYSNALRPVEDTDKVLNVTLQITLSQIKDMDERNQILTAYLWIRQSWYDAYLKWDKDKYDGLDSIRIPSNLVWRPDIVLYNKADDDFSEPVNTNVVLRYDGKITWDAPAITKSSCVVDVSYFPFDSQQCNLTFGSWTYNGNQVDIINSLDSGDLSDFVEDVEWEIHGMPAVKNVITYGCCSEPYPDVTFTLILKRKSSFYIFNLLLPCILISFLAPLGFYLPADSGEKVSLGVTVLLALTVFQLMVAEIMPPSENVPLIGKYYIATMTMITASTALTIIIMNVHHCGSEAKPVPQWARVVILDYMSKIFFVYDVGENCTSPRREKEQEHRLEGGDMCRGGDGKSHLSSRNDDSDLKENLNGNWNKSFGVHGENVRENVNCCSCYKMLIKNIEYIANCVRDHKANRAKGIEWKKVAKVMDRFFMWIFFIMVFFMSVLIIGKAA

CC(=O)OCC[N+](C)(C)C [ACh, acetylcholine]
EC50 [1]: 16 ± 2 µM | Imax (maximal evoked current) [1]: 100 ± 12 nA | Imax (maximal evoked current) (rat α9α10CC/SS receptor): 571 ± 113 nA | Imax (maximal evoked current) (rat α9α10R117M receptor): 107 ± 38 nA | Imax (maximal evoked current) ([2]; rat α9α10 W55T/R117M, oocytes): 245 ± 83 nA | Free energy coupling, double-mutant cycle ([2]; α10W55 and α10R117): -1.47 kcal/mol | Imax (maximal evoked current) (rat α9α10W55T receptor): 177 ± 81 nA | Decrease in affinity on mutation of the CC [3]: 10 fold
